Experimental data as given in patent publication US11370801B2, “Pyrrolobenzodiazepine conjugates” (priority 2017, dated 2022).

Columns and labels:
[1] = test system: NCI-N87; experiment: Therapeutic index: MTD in rat / MED in mouse efficacy model; assay type: in vivo; conditions: ADC of the drug linker
Protocol: The therapeutic index of each ADC/drug linker was calculated using the following equation: TI=MTD in rat (mg/kg)/MED in mouse efficacy model (mg/kg)

[2] = in vitro cytotoxicity, picomolar region; cited from earlier work

Structure (SMILES)	NCI-N87 MED [1]	cytotoxic potency relative to DSB-120 [2]
COc1cc2c(cc1OCCCOc1cc3c(cc1OC)C(=O)N1CCC[C@H]1[C@H](O)N3C(=O)OCc1ccc(NC(=O)[C@H](C)NC(=O)[C@@H](NC(=O)CCOCCOCCOCCOCCOCCOCCOCCOCCNC(=O)CCN3C(=O)C=CC3=O)C(C)C)cc1)N=C[C@@H]1CCCN1C2=O [Compound 1, 4-((2S,5S)-37-(2,5-dioxo-2,5-dihydro-1H-pyrrol-1-yl)-5-isopropyl-2-methyl-4,7,35-trioxo-10,13,16,19,22,25,28,31-octaoxa-3,6,34-triazaheptatriacontanamido)benzyl(11S,11aS)-11-hydroxy-7-methoxy-8-(3-(((S)-7-methoxy-5-oxo-2,3,5,11a-tetrahydro-1H-pyrrolo[2,1-c][1,4]benzodiazepin-8-yl)oxy)propoxy)-5-oxo-2,3,11,11a-tetrahydro-1H-pyrrolo[2,1-c][1,4]benzodiazepine-10(5H)-carboxylate]	6 mg/kg	
C=C1C[C@H]2C=Nc3cc(OCCCOc4cc5c(cc4OC)C(=O)N4CC(=C)C[C@H]4C=N5)c(OC)cc3C(=O)N2C1 [SG2000]		~9000 fold
COc1cc2c(cc1OCCCOc1cc3c(cc1OC)C(=O)N1CCC[C@H]1[C@H](O)N3C(=O)OCc1ccc(NC(=O)[C@H](C)NC(=O)[C@@H](NC(=O)CCOCCOCCOCCOCCOCCOCCOCCOCCNC(=O)CCN3C(=O)C=CC3=O)C(C)C)cc1)N=C[C@@H]1CCCN1C2=O [Compound 2, 4-((2S,5S)-37-(2,5-dioxo-2,5-dihydro-1H-pyrrol-1-yl)-5-isopropyl-2-methyl-4,7,35-trioxo-10,13,16,19,22,25,28,31-octaoxa-3,6,34-triazaheptatriacontanamido)benzyl(11S,11aS)-11-hydroxy-7-methoxy-8-(3-(((S)-7-methoxy-5-oxo-2,3,5,11a-tetrahydro-1H-pyrrolo[2,1-c][1,4]benzodiazepin-8-yl)oxy)propoxy)-5-oxo-2,3,11,11a-tetrahydro-1H-pyrrolo[2,1-c][1,4]benzodiazepine-10(5H)-carboxylate]	2 mg/kg	
COc1cc2c(cc1OCc1cccc(COc3cc4c(cc3OC)C(=O)N3CCC[C@H]3[C@H](O)N4C(=O)OCc3ccc(NC(=O)[C@H](C)NC(=O)[C@@H](NC(=O)CCOCCOCCOCCOCCOCCOCCOCCOCCNC(=O)CCN4C(=O)C=CC4=O)C(C)C)cc3)c1)N=C[C@@H]1CCCN1C2=O [Compound 3, 4-((2S,5S)-37-(2,5-dioxo-2,5-dihydro-1H-pyrrol-1-yl)-5-isopropyl-2-methyl-4,7,35-trioxo-10,13,16,19,22,25,28,31-octaoxa-3,6,34-triazaheptatriacontanamido)benzyl (11S,11aS)-11-hydroxy-7-methoxy-8-((3-((((S)-7-methoxy-5-oxo-2,3,5,11a-tetrahydro-1H-benzo[e]pyrrolo[1,2-a][1,4]diazepin-8-yl)oxy)methyl)benzyl)oxy)-5-oxo-2,3,11,11a-tetrahydro-1H-benzo[e]pyrrolo[1,2-a][1,4]diazepine-10(5H)-carboxylate]	1 mg/kg	
